ChEMBL document CHEMBL1201862, “PubChem BioAssay data set” (2004)
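Following 48 hours of exposure in 96-well plates, responses at five concentrations were used to interpolate endpoints linearly. GI50 marks 50% less growth.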 Active and inactive are the calls of the source. Rule as the data show it: active = GI50 up to about 1.1 µM and inactive = higher.

Columns and labels:
Assay in all cases: growth of human tumour cells (NCI), 48 h
NCI-H460 = tested on: NCI-H460
RXF 393 = tested on: RXF 393
MCF7 = tested on: MCF7
HCT-15 = tested on: HCT-15
SK-OV-3 = tested on: SK-OV-3
UACC-62 = tested on: UACC-62
SK-MEL-2 = tested on: SK-MEL-2
TK-10 = tested on: TK-10
CCRF-CEM = tested on: CCRF-CEM
SNB-75 = tested on: SNB-75
ACHN = tested on: ACHN
T47D = tested on: T47D
UACC-257 = tested on: UACC-257
MDA-MB-435 = tested on: MDA-MB-435
SF-268 = tested on: SF-268
Hs-578T = tested on: Hs-578T
EKVX = tested on: EKVX
SR = tested on: SR
SK-MEL-28 = tested on: SK-MEL-28

Row | SMILES | GI50 (NCI-H460) | GI50 (RXF 393) | GI50 (MCF7) | GI50 (HCT-15) [µM] | GI50 (SK-OV-3) | GI50 (UACC-62) | GI50 (SK-MEL-2) | GI50 (TK-10) | GI50 (CCRF-CEM) | GI50 (SNB-75) | GI50 (ACHN) | GI50 (T47D) | GI50 (UACC-257) | GI50 (MDA-MB-435) | GI50 (SF-268) | GI50 (Hs-578T) | GI50 (EKVX) | GI50 (SR) | GI50 (SK-MEL-28)
1 | CC(CC(=O)O)(CC(=O)O)c1ccccc1 | > 100 µM (inactive) | > 100 µM (inactive) | > 100 µM (inactive) | > 100 | > 100 µM (inactive) | > 100 µM (inactive) | > 100 µM (inactive) | > 100 µM (inactive) | > 100 µM (inactive) | > 100 µM (inactive) | > 100 µM (inactive) | > 100 µM (inactive) | > 100 µM (inactive) | > 100 µM (inactive) | > 100 µM (inactive) | > 100 µM (inactive) | > 100 µM (inactive) | > 100 µM (inactive) | > 100 µM (inactive)
2 | Cc1cc2oc(C)c(S(=O)(=O)NC(=O)Nc3ccc(Cl)cc3)c(=O)c2c(=O)o1 | > 100 µM (inactive) | > 100 µM (inactive) | > 100 µM (inactive) | 23 | > 100 µM (inactive) | 30.9 µM (inactive) | > 100 µM (inactive) | > 100 µM (inactive) | > 100 µM (inactive) | > 100 µM (inactive) | 59.4 µM (inactive) | > 100 µM (inactive) | > 100 µM (inactive) | > 100 µM (inactive) | > 100 µM (inactive) | > 100 µM (inactive) | > 100 µM (inactive) | > 100 µM (inactive) | > 100 µM (inactive)
3 | Oc1c(Cl)c(Cl)c(Cl)c(Cl)c1Cl [PENTACHLOROPHENOL] | > 100 µM (inactive) | 23.2 µM (inactive) | 24.9 µM (inactive) | 19.5 | 45.6 µM (inactive) | 16.4 µM (inactive) | 16 µM (inactive) | > 100 µM (inactive) | 21.3 µM (inactive) | 22.9 µM (inactive) | 18.9 µM (inactive) | 20 µM (inactive) | > 100 µM (inactive) | 20.7 µM (inactive) | 31.1 µM (inactive) | 35.2 µM (inactive) | 23.4 µM (inactive) | 26.1 µM (inactive) | 24 µM (inactive)
4 | C=C1C(=O)O[C@H]2[C@H]1CC(=O)/C(C)=C/CC[C@@]1(C)O[C@@H]21 | 10.9 µM (inactive) | 0.44 µM (active) | 0.392 µM (active) | 0.515 | 12.9 µM (inactive) | 1.37 µM (inactive) | 3.03 µM (inactive) | 1.24 µM (inactive) | 0.0841 µM (active) | 16.7 µM (inactive) | 0.461 µM (active) | 1.12 µM (active) |  | 1.53 µM (inactive) | 3.45 µM (inactive) | 2.4 µM (inactive) |  | 0.541 µM (active) | 0.603 µM (active)
5 | CN(C)CCOc1ccc(-c2c(Oc3ccc(Cl)cc3)c(=O)oc3ccccc23)cc1 | 7.35 µM (inactive) | 8.09 µM (inactive) | 4.41 µM (inactive) | 6.95 | 10.4 µM (inactive) | 4.97 µM (inactive) | 7.59 µM (inactive) | 10.4 µM (inactive) | 4.41 µM (inactive) | 6.56 µM (inactive) | 18.6 µM (inactive) | 8.87 µM (inactive) | 5.13 µM (inactive) | 2.67 µM (inactive) | 8.69 µM (inactive) | 8.59 µM (inactive) | 12.3 µM (inactive) | 4.09 µM (inactive) | 3.27 µM (inactive)
6 | CCOC(=O)CCC(NC(=O)c1ccc(Nc2nc3ccccc3nc2-c2cccs2)cc1)C(=O)OCC (centres undefined) | 25.1 µM (inactive) | 87.3 µM (inactive) | 26.9 µM (inactive) | 21.9 | 28.6 µM (inactive) | 23.7 µM (inactive) | 31.2 µM (inactive) | 21.2 µM (inactive) | 11.4 µM (inactive) | 36.3 µM (inactive) | 31 µM (inactive) | 12 µM (inactive) | 29.2 µM (inactive) | 30.2 µM (inactive) | 27.1 µM (inactive) | 23 µM (inactive) | 31.6 µM (inactive) | 11.8 µM (inactive) | 26.3 µM (inactive)
7 | O=C(O)C1C2C=CC(O2)C1C(=O)NCc1ccccn1 (centres undefined) | > 100 µM (inactive) | 44.5 µM (inactive) | > 100 µM (inactive) | > 100 | > 100 µM (inactive) | > 100 µM (inactive) | > 100 µM (inactive) | > 100 µM (inactive) | > 100 µM (inactive) | > 100 µM (inactive) | > 100 µM (inactive) | > 100 µM (inactive) | > 100 µM (inactive) | > 100 µM (inactive) | > 100 µM (inactive) | > 100 µM (inactive) | > 100 µM (inactive) | > 100 µM (inactive) | > 100 µM (inactive)
8 | CCOC(=O)C(=Cn1c(=S)[nH]c2ccc([N+](=O)[O-])cc21)C(=O)OCC | > 100 µM (inactive) | > 100 µM (inactive) | > 100 µM (inactive) |  | > 100 µM (inactive) | > 100 µM (inactive) | > 100 µM (inactive) | > 100 µM (inactive) | > 100 µM (inactive) | 47.9 µM (inactive) | > 100 µM (inactive) | 59.6 µM (inactive) | > 100 µM (inactive) | > 100 µM (inactive) | > 100 µM (inactive) | 90.4 µM (inactive) | > 100 µM (inactive) | > 100 µM (inactive) | > 100 µM (inactive)
